The text below walks through data of patent US20220088031A1, “METHODS AND COMPOSITIONS FOR TREATING RESISTANT AND RECURRENT FORMS OF CANCER” (Health Research, Inc., priority 2019, published 2022).

The test system of this assay is RC-77 T/E cells. Kind of assay: Cell death, DEVDase activity and CC expression in a second AA PCa cell line. The following applies: both AA PCa cell lines; for CC expression / caspase-3 activity: DOC with or without inhibitor, 24 hrs; for cell death: not as effective as in CA PCa cells. The assay is classed as cell-based, human. The method, then: Immunoblotting: Immunoblotting was performed as described previously. Protein lysates were prepared using a lysis in NP-40 buffer (50 mM Tris-HCl pH 7.4, 150 mM NaCl, 1 mM EDTA, 1 mM EGTA, 1% NP-40) supplemented with protease and phosphatase inhibitor cocktail. Protein content was quantified using a micro BCA protein estimation kit (Thermo Scientific, Waltham, Mass.; Cat #23235). Protein samples were resolved on 4-20% Criterion gels, transferred on nitrocellulose membranes (BioRad, Hercules, Calif.) and subjected to immunoblotting. Membranes were blocked in 5% fat free dry milk (Blotto, Santa Cruz, Dallas, Tex.; Cat #sc-2324) prepared in PBS-T (Tween-20) and incubated overnight in primary antibodies (1:1000 dilution) at 4° C. with continuous shaking. After washing with PBS-T, membranes were incubated in HRP conjugated anti-mouse or anti-rabbit secondary antibody at room temperature for 1 hr. After washing with PBS-T, proteins were detected using Clarity chemiluminescent reagent (BioRad, Hercules, Calif.; Cat #1705061) and X-Ray films (ASI, Fort Lauderdale, Fla.; Cat #XR1570). Membranes were stripped using stripping buffer and probed with HRP conjugated beta-actin antibody to ensure equal loading of proteins.
Cell viability assay: PCa cells (5×10^4 cells/well) were seeded on 6-well cell culture plates and incubated with DOC (1-20 nM) for 24 hrs. Floating and attached cells were collected using trypsinization. Live and dead cells were counted under a light microscope using a trypan blue exclusion assay.
Caspase-3 (DEVDase) activity assay: PCa cell lysates prepared in NP40 lysis buffer were incubated with DEVD-AFC (caspase-3 substrate) at 37° C. for 90 min in caspase activity assay buffer (50 mM HEPES pH 7.4, 150 mM NaCl, 1% CHAPS, 1 mM EDTA, 1 mM DTT, 50% glycerol). Fluorescence intensity was detected using a Synergy microplate reader at excitation and emission wavelengths of 400 nm and 508 nm, respectively. Arbitrary fluorescence units were normalized with protein content of cell lysates and represented as fold change compared to control groups.

`CCc1ccc(/C=C2/SC(=S)NC2=O)cc1` [c-Myc inhibitor, 10058-F4]: the CC expression result was “induced CC expression”, the caspase-3 activity result was “activated caspase-3 activity” and the cell death result was “enhanced cell death”.
For the compound `Cc1ccc(NCCCc2ccccc2)c(N)c1` [NF-κB inhibitor, JSH-23], the CC expression result is listed as “induced CC expression”, the caspase-3 activity result was “activated caspase-3 activity” and the cell death entry is “enhanced cell death”.
